Test results taken from patent US11298431B2, “Method for labeling radioisotope radiolabeling compound and kit comprising the same for labeling radioisotope” (KOREA ATOMIC ENERGY RESEARCH INSTITUTE, priority 2018, dated 2022).

How the values were obtained:
[1] = Storage stability of the radioiodinated aldehyde in the refrigerator; format: physicochemical
From the text: (§1) For synthesis of ^125I-labeled aldehyde [^125I] 5, specific radioactive analogue 4-iodo-N-(4-oxobutyl) benzamide) 5 was synthesized by coupling of 4-aminobutyraldehyde diethyl acetal with 4-iodobenzoic acid under basic conditions and a subsequent reduction under acidic conditions (Scheme 1). The radioiodination shown in 6 was achieved using [^125I] NaI and chloramines-T as oxidants (Scheme 3). The radioiodination reaction was terminated by adding an aqueous solution of sodium metabisulfite. After HPLC purification of the crude product, [^125I] 5 was obtained with high radiochemical yield (72±6%, n=5). The specific activity was 45 GBq/μmol and the chemical purity was more than 99%. In the HPLC chromatogram of the crude mixture, the main product [^125I] 5 was clearly shown at 22.6 minutes (FIG. 1). Radio-labeling reactions were performed by using various amounts of radioisotopes (100 μCi to 1 mCi), but the radiochemical results were consistent. The radioactive iodine compound [^125I] […] The compound [^125I]

[2] = In vitro stability in various media at 37° C. (radio-HPLC); format: in vitro ADME
From the text: as §1

hydrolysis ([1]; compared with active ester-based prosthetic groups (Bolton-Hunter-reagent)): not hydrolyzed
time found to be stable in the refrigerator ([1]; refrigerator (4° C.)): more than 6 months
time shown to be stable in medium ([2]; PBS): ≥ 24 h
time shown to be stable in medium ([2]; mouse serum): ≥ 24 h
time shown to be stable in medium ([2]; saline): ≥ 24 h
Compound: O=CCCCNC(=O)c1ccc([125I])cc1 [[^125I] 5]
